Assays:
[1] = test system: wheat mesocotyl explants; assay: Multiple bud induction from primary meristems on multiple shoot inducing media, wheat mesocotyl explants; type: cell-based; conditions: 4 weeks after culture initiation (Table 3)
Description: A. Wheat mesocotyl explant: Mature wheat seeds were surface sterilized first in 70% ethanol for 1 min. and then soaked in 20% CLOROX® (5.25% sodium hypochlorite) and shaken at 250 rpm for 20 min. The seeds were then rinsed five times with sterile distilled water and then placed in 100×25 mm petri dishes containing a sterile piece of felt and ˜15 mL of double distilled sterile water with 5 μM BA for germination. The seeds were cultured for 1 day in darkness at ˜24° C. Mesocotyl sections about 2-3 mm in length were then excised by removing the upper portion of the coleoptile, approximately 1-1.5 mm in length, and root tissue around the crown region. These mesocotyl explants contain at least several different and distinct meristems, such as a scutellar node, a coleoptile node, a first leaf bud and possibly several leaf nodes, and an apical meristem. This mesocotyl explant thus comprises an apical meristem and several axillary meristems, including the scutellar node meristem. It is important when excising the mesocotyl explant to leave a whole piece of the scutellum attached to the explant, because the scutellar node meristem contributes a large primary meristem from which upwards of 100 buds can be produced via the method of the present invention, relative to the small primary meristems contributed by the other meristems from which a smaller number of buds can be produced. […]

[2] = test system: wheat mesocotyl explants; assay: Multiple shoot production with cytokinins alone, wheat mesocotyl explants; type: cell-based; conditions: cytokinin 5 mg/L, 32 days after culture
Description: A. Wheat mesocotyl explant: Mature wheat seeds were surface sterilized first in 70% ethanol for 1 min. and then soaked in 20% CLOROX® (5.25% sodium hypochlorite) and shaken at 250 rpm for 20 min. The seeds were then rinsed five times with sterile distilled water and then placed in 100×25 mm petri dishes containing a sterile piece of felt and ˜15 mL of double distilled sterile water with 5 μM BA for germination. The seeds were cultured for 1 day in darkness at ˜24° C. Mesocotyl sections about 2-3 mm in length were then excised by removing the upper portion of the coleoptile, approximately 1-1.5 mm in length, and root tissue around the crown region. These mesocotyl explants contain at least several different and distinct meristems, such as a scutellar node, a coleoptile node, a first leaf bud and possibly several leaf nodes, and an apical meristem. This mesocotyl explant thus comprises an apical meristem and several axillary meristems, including the scutellar node meristem. […] It is also important that the explants have all of the described meristems intact after excision, in order to maximize multiple bud response in culture.
Wheat explants such as mesocotyl sections from seedlings, mature embryos from mature seeds, and immature embryos from immature seeds were cultured on multiple shoot inducing media comprising combinations of cytokinins, auxins and abscisic acid (ABA). […] The particular media compositions used for this invention are described in detail in Table 1. The mesocotyl explants were placed on media with the acropetal end up, and mature and immature embryo explants were placed on media with the scutellum-side up. […]
For the first three weeks, the explants were usually trimmed, by removing the top portion of coleoptile 3-5 mm above the crown region for wheat, every 3 to 5 days to inhibit dominant growth.
Four different cytokinins, not in combination with auxin, were tested for their ability to induce multiple shoot induction on wheat mesocotyl explants: BA, kinetin, zeatin and TDZ.

[3] = test system: shoots from Bobwhite mesocotyl explants; assay: Root induction of elongated shoots; type: cell-based, wheat; conditions: IBA 1 mg/L
Description: Usually three to five weeks after the induction stage culture described above, multiple bud clumps were divided and transferred to a shoot elongation medium, and cultured under 16 h photoperiod at about 25° C. for 3 to 4 weeks. The shoot elongation medium comprised MS basal medium supplemented with ascorbic acid at 100 mg/L, 2-[N-Morpholino]ethanesulfonic acid (MES) at 1.95 g/L, casein hydrolysate at 100 mg/L, maltose at 40 g/L, and Schweizer-Hall® gelling agent at 2 g/L. The elongated shoots were transferred to a rooting medium, comprising MS basal medium supplemented with IBA at 1 mg/L, ascorbic acid at 100 mg/L, 2-[N-Morpholino] ethanesulfonic acid (MES) at 1.95 g/L, casein hydrolysate at 100 mg/L, maltose at 40 g/L, and Schweizer-Hall® gelling agent at 2 g/L, for 3 to 4 weeks, after which sufficient roots had formed to transfer the shoots to soil.
Three genotypes were tested to evaluate shoot elongation from the buds induced in the above described multiple shoot induction step. Bobwhite, 251BW012 and Autry525 were chosen as representative standard, good and poor lines respectively, based on a previous study of embryogenic regeneration capacity. The buds were removed from the media containing the growth regulator combination described in the induction stage, after about 3-5 weeks of culture. […]

[4] = (D) continuous dark first two weeks, then light 16/8 two weeks
[5] = (L) 16 h photoperiod for four weeks

Structure (SMILES)	% explants producing 20-80 buds/primary meristem [1] [%]	No. primary meristems produced/explant [1]	% of explants producing 2-5 shoots (each from a single primary meristem) [2, 4] [%]	% of explants producing multiple shoots from a single primary meristem [2, 4] [%]	% of explants producing 2-5 shoots (each from a single primary meristem) [2, 5] [%]	% of explants producing multiple shoots from a single primary meristem [2, 5] [%]	% shoots producing roots [3]
O=C(Nc1ccccc1)Nc1cnns1 [TDZ, thidiazuron]	0	2-5	76.2	0	80.0	0	
C/C(=C\CNc1ncnc2[nH]cnc12)CO [Zeatin, zeatin]			45.0	0	20.0	0	
c1coc(CNc2ncnc3[nH]cnc23)c1 [Kinetin, kinetin]			23.8	0	20.0	0	
O=C(O)CCCc1c[nH]c2ccccc12 [IBA, 3-indolebutyric acid]							significantly increased the rooting response
c1ccc(CNc2ncnc3nc[nH]c23)cc1 [BA, 6-benzylaminopurine]			15.0	0	10.0	0	

From US10253322B2, “Method for the production of transgenic plants” (MONSANTO TECHNOLOGY LLC, priority 2001, dated 2019)
